This is an account of results in patent publication US8378172B2, “Methods using acyl-CoA binding proteins to enhance low-temperature tolerance in genetically modified plants” (The University of Hong Kong, priority 2009, dated 2013).

Experiment [1] addresses T1, (His)6-ACBP6 (Arabidopsis thaliana, UniProt P57752).
T1 construct: made in house; host or cells: Escherichia coli
The experiment in a line: in vitro filter-binding assay, (His)6-ACBP6/lipid binding on nitrocellulose. As to conditions: 1 μg/ml (His)6-ACBP6. The procedure: A, Purification of (His)6-ACBP6 recombinant protein. […] M, marker; lane 1, flow through fraction; lane 2, washing fraction at pH 6.3; lanes 3-8, eluted fractions at pH 5.9; lanes 9-12, eluted fractions at pH 4.5. B, (His)6-ACBP6/lipid binding on filters. Various concentrations (0, 12.5, 25.0 and 32.5 μM) of lipids (PA, PC and LysoPC) were spotted onto nitrocellulose and incubated with 1 μg/ml of purified (His)6-ACBP6 protein. The (His)6-ACBP6/lipid binding was detected by immunoblotting with HRP-conjugated anti-penta-His antibodies. C, Effect of PC acyl species on (His)6-ACBP6/lipid binding. Fifty μM lipid (PC, 16:0-PC, 18:0-PC, 18:1-PC, 18:2-PC or DMPC) spotted onto nitrocellulose was incubated with 1 μg/ml of purified (His)6-ACBP6 protein. The (His)6-ACBP6/lipid binding was detected by immunoblotting with HRP-conjugated anti-penta-His antibodies. […]
Expression and purification of His-tagged ACBP6 recombinant protein was carried out according to Xiao et al. (Plant J 54: 141-151, 2008). […] Following incubated with the HRP-conjugated anti-penta-His antibodies (1:2,000; QIAGEN, Cat. No. 1014922) for 1 h at RT, the filter was again washed 3 times with TTBS, each for 10 min and then detected with the ECL Western Blotting Detection Kit (Amersham) following the manufacturer's protocols.
T1 sequence (P57752 other isoform, or with tags, fused parts or gaps): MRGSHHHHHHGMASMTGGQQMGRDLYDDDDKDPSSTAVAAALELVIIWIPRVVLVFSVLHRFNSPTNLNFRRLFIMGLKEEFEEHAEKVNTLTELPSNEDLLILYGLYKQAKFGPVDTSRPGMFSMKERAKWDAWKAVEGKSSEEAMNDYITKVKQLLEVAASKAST

For experiment [2], the target named is T2, (His)6-ACBP4 (Arabidopsis thaliana, UniProt Q9MA55).
T2 construct: (His)6
T2 sequence (Q9MA55 1-668): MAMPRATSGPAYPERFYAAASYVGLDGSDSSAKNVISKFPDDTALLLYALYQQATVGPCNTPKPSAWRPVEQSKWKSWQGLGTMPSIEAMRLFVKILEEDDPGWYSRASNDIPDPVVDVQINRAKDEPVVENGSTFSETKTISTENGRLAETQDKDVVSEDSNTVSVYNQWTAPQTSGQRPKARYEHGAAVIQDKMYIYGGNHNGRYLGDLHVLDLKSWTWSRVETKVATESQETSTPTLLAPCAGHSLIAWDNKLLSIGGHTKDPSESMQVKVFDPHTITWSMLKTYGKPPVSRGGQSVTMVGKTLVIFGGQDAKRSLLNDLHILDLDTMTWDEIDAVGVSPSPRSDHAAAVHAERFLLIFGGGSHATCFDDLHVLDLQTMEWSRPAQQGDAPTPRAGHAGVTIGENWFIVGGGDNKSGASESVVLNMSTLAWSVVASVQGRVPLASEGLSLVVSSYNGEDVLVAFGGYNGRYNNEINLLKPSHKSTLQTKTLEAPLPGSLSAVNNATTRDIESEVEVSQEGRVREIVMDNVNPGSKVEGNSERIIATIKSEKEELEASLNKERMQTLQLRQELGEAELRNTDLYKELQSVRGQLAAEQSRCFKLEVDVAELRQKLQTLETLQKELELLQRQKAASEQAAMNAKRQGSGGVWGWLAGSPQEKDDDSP
As to conditions: recombinant (His)6-ACBP4; read-out: dissociation constant (Kd) in binding oleoyl-CoA esters; cited from earlier work.

In experiment [3] the target is T3, (His)6-ACBP5 (Arabidopsis thaliana, UniProt Q8RWD9).
T3 construct: (His)6
T3 sequence (Q8RWD9 1-648): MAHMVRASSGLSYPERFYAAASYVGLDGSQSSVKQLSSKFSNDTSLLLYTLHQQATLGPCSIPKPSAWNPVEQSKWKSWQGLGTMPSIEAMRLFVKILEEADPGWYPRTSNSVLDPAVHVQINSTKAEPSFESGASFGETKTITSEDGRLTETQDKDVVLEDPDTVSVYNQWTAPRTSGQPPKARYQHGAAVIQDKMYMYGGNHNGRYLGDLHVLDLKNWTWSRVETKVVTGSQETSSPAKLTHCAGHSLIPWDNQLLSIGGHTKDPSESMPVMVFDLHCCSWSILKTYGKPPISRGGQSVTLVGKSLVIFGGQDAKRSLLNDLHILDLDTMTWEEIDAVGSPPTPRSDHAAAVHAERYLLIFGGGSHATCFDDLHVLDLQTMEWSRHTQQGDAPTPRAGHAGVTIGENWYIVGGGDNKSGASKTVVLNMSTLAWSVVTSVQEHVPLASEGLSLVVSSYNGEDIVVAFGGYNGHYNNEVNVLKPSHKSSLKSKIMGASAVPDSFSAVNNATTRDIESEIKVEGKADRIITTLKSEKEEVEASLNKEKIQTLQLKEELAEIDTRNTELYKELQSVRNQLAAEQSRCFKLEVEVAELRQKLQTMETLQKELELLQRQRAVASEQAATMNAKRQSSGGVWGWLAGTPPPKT
The conditions noted are these: recombinant (His)6-ACBP5; read-out: dissociation constant (Kd) in binding oleoyl-CoA esters; cited from earlier work.

Experiment [4] concerns the target T4, (His)6-ACBP6 (Arabidopsis thaliana, UniProt P57752).
T4 construct: (His)6
T4 sequence (P57752 1-92): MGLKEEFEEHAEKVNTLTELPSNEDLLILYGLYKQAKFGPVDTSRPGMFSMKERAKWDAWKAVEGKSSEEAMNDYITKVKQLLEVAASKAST
The conditions noted are these: recombinant (His)6-ACBP6; read-out: dissociation constant (Kd) in binding oleoyl-CoA esters; cited from earlier work.

pKd: −log10 of the molar value.

Turning to “1,2-diacyl-sn-glocero-3-phosphocholine [PC]”, the “(His)6-ACBP6/lipid binding on filters” value in experiment [1] (0, 12.5, 25.0 and 32.5 μM lipid spotted, FIG. 7B) is on record as “binds”.
For `CCCCCCCCCCCCCC(=O)OC[C@H](COP(=O)([O-])OCC[N+](C)(C)C)OC(=O)CCCCCCCCCCCCC` [DMPC, 1,2-dimyristoyl-sn-glycero-3-phosphocholine], in experiment [1] (50 μM lipid spotted, FIG. 7C), the “effect of PC acyl species on (His)6-ACBP6/lipid binding” value is given as “did not bind”.
For `CCCCCCCC/C=C\CCCCCCCC(=O)SCCNC(=O)CCNC(=O)[C@H](O)C(C)(C)COP(=O)(O)OP(=O)(O)OC[C@H]1O[C@@H](n2cnc3c(N)ncnc32)[C@H](O)[C@@H]1OP(=O)(O)O` [oleoyl-CoA], the pKd in experiment [2] was 6.25; in experiment [3], 6.17; in experiment [4], 5.43.
